Each compound was assayed against T1, Recombinant human cathepsin S (CatS) (Homo sapiens, UniProt P25774) (assay: Recombinant human cathepsin S (CatS) fluorogenic substrate inhibition assay). Details: not given.
T1 construct: made in house
Assay type: biochemical
Protocol: Recombinant human cathepsin S (CatS) was expressed in the baculovirus system and purified in one step with a thiopropyl-sepharose column. […] The assay is run in 150 mM sodium acetate pH 5.0 containing 1.5 mM DTT and 150 mM NaCl. […] Measurements are taken every min for 20 min. The rate is calculated from the slope of the increase in fluorescence and the percent inhibition is calculated from this.

T1 sequence (P25774 115-331): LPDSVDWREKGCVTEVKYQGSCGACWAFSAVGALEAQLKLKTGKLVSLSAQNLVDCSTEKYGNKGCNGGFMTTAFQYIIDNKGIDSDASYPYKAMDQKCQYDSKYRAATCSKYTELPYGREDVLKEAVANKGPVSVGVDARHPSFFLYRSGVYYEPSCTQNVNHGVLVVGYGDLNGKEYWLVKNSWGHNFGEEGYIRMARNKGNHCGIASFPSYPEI

Compound | IC50 [µM]
CS(=O)(=O)N1CCc2c(c(-c3ccc(C(F)(F)F)c(CNC(=O)Oc4ccccc4)c3)nn2CC(O)CN2CCC3(CCNC3=O)CC2)C1 (stereo not shown) [Example 149, (5-{1-[2-Hydroxy-3-(1-oxo-2,8-diaza-spiro[4.5]dec-8-yl)-propyl]-5-methanesulfonyl-4,5,6,7-tetrahydro-1H-pyrazolo[4,3-c]pyridin-3-yl}-2-trifluoromethyl-benzyl)-carbamic acid phenyl ester] | 0.22

Same assay, conditions: average of results obtained; substrate Z-Valine-Valine-Arginine-AMC 10 μM, pH 5.0; read-out: CatS IC50

Compound | IC50 [µM]
CS(=O)(=O)N1CCc2c(c(-c3ccc(C(F)(F)F)c(CNS(=O)(=O)Cc4ccccc4)c3)nn2CCCN2CCC3(CCNC3=O)CC2)C1 [Example 67, N-(5-{5-Methanesulfonyl-1-[3-(1-oxo-2,8-diaza-spiro[4.5]dec-8-yl)-propyl]-4,5,6,7-tetrahydro-1H-pyrazolo[4,3-c]pyridin-3-yl}-2-trifluoromethyl-benzyl)-C-phenyl-methanesulfonamide] | 2.2
CS(=O)(=O)N1CCc2c(c(-c3ccc(C(F)(F)F)c(CNC(=O)c4ccc(F)c(Cl)c4)c3)nn2CC(O)CN2CCCC2)C1 (stereo not shown) [Example 61, 3-Chloro-4-fluoro-N-{5-[1-(2-hydroxy-3-pyrrolidin-1-yl-propyl)-5-methanesulfonyl-4,5,6,7-tetrahydro-1H-pyrazolo[4,3-c]pyridin-3-yl]-2-trifluoromethyl-benzyl}-benzamide] | 0.19
CS(=O)(=O)N1CCc2c(c(-c3ccc(C(F)(F)F)c(CNC(=O)c4ccc(F)cc4)c3)nn2CC(O)CN2CCCC(O)C2)C1 (stereo not shown) [Example 92, 4-Fluoro-N-(5-{1-[2-hydroxy-3-(3-hydroxy-piperidin-1-yl)-propyl]-5-methanesulfonyl-4,5,6,7-tetrahydro-1H-pyrazolo[4,3-c]pyridin-3-yl}-2-trifluoromethyl-benzyl)-benzamide] | 0.17
CS(=O)(=O)N1CCc2c(c(-c3ccc(C(F)(F)F)c(CNC(=O)c4ccc(F)cc4)c3)nn2CCCN2CCC(O)C2)C1 (stereo not shown) [Example 40, 4-Fluoro-N-(5-{1-[3-(3-hydroxy-pyrrolidin-1-yl)-propyl]-5-methanesulfonyl-4,5,6,7-tetrahydro-1H-pyrazolo[4,3-c]pyridin-3-yl}-2-trifluoromethyl-benzyl)-benzamide] | 0.09
CS(=O)(=O)N1CCc2c(c(-c3ccc(C(F)(F)F)c(CNC(=O)c4ccc(F)cc4)c3)nn2CC(O)CN2CCN(CCO)CC2)C1 (stereo not shown) [Example 98, 4-Fluoro-N-[5-(1-{2-hydroxy-3-[4-(2-hydroxy-ethyl)-piperazin-1-yl]-propyl}-5-methanesulfonyl-4,5,6,7-tetrahydro-1H-pyrazolo[4,3-c]pyridin-3-yl)-2-trifluoromethyl-benzyl]-benzamide] | 0.28
COC1CCN(CC(O)Cn2nc(-c3ccc(Cl)c(CNC(=O)c4ccc(F)cc4)c3)c3c2CCN(S(C)(=O)=O)C3)CC1 (stereo not shown) [Example 75, N-(2-Chloro-5-{1-[2-hydroxy-3-(4-methoxy-piperidin-1-yl)-propyl]-5-methanesulfonyl-4,5,6,7-tetrahydro-1H-pyrazolo[4,3-c]pyridin-3-yl}-benzyl)-4-fluoro-benzamide] | 0.14
CS(=O)(=O)N1CCc2c(c(-c3ccc(C(F)(F)F)c(CNC(=O)c4ccc(F)cc4)c3)nn2CC(O)CN2CCC(C(=O)O)CC2)C1 (stereo not shown) [Example 90, 1-[3-(3-{3-[(4-Fluoro-benzoylamino)-methyl]-4-trifluoromethyl-phenyl}-5-methanesulfonyl-4,5,6,7-tetrahydro-pyrazolo[4,3-c]pyridin-1-yl)-2-hydroxy-propyl]-piperidine-4-carboxylic acid] | 0.15
CC(C)=CC(=O)NCc1cc(-c2nn(CC(O)CN3CCC(N(C)C)C3)c3c2CN(S(C)(=O)=O)CC3)ccc1C(F)(F)F (stereo not shown) [Example 33, 3-Methyl-but-2-enoic acid 5-{1-[3-(3-dimethylamino-pyrrolidin-1-yl)-2-hydroxy-propyl]-5-methanesulfonyl-4,5,6,7-tetrahydro-1H-pyrazolo[4,3-c]pyridin-3-yl}-2-trifluoromethyl-benzylamide] | 0.46
CC(C)(C)OC(=O)NC1CCN(CC(O)Cn2nc(-c3ccc(C(F)(F)F)c(CNC(=O)c4ccc(F)cc4)c3)c3c2CCN(S(C)(=O)=O)C3)CC1 (stereo not shown) [Example 102] | 0.03
CS(=O)(=O)N1CCc2c(c(-c3ccc(C(F)(F)F)c(CNc4nc5ccccc5o4)c3)nn2CC(O)CN2CCCC2)C1 (stereo not shown) [Example 68, 1-{3-[3-(Benzooxazol-2-ylaminomethyl)-4-trifluoromethyl-phenyl]-5-methanesulfonyl-4,5,6,7-tetrahydro-pyrazolo[4,3-c]pyridin-1-yl}-3-pyrrolidin-1-yl-propan-2-ol] | 0.75
CS(=O)(=O)N1CCc2c(c(-c3ccc(Cl)c(CNC(=O)c4ccc(Cl)c(Cl)c4)c3)nn2CCCN2CCCC2)C1 [Example 87, 3,4-Dichloro-N-{2-chloro-5-[5-methanesulfonyl-1-(3-pyrrolidin-1-yl-propyl)-4,5,6,7-tetrahydro-1H-pyrazolo[4,3-c]pyridin-3-yl]-benzyl}-benzamide] | 1.02

Other lines, results leading:

IC50 [µM] | Compound
0.3 | CC(C)CC(=O)NCc1cc(-c2nn(CC(O)CN3CCC(C)(C)CC3)c3c2CN(S(C)(=O)=O)CC3)ccc1C(F)(F)F (stereo not shown) [Example 251, N-(5-{1-[3-(4,4-Dimethyl-piperidin-1-yl)-2-hydroxy-propyl]-5-methanesulfonyl-4,5,6,7-tetrahydro-1H-pyrazolo[4,3-c]pyridin-3-yl}-2-trifluoromethyl-benzyl)-3-methyl-butyramide]
0.18 | CC1(C)CCN(CCCn2nc(-c3ccc(C(F)(F)F)c(CNCc4ccc(F)cc4)c3)c3c2CCN(C(=O)CO)C3)CC1 [Example 297, 1-(1-[3-(4,4-Dimethyl-piperidin-1-yl)-propyl]-3-{3-[(4-fluoro-benzylamino)-methyl]-4-trifluoromethyl-phenyl}-1,4,6,7-tetrahydro-pyrazolo[4,3-c]pyridin-5-yl)-2-hydroxy-ethanone]
4.85 | CN(C)C(=O)CCc1cc(-c2nn(CCCN3CCOCC3)c3c2CN(S(C)(=O)=O)CC3)ccc1Cl [Example 295, 3-{2-Chloro-5-[5-methanesulfonyl-1-(3-morpholin-4-yl-propyl)-4,5,6,7-tetrahydro-1H-pyrazolo[4,3-c]pyridin-3-yl]-phenyl}-N,N-dimethyl-propionamide]
0.09 | CS(=O)(=O)N1CCc2c(c(-c3ccc(C(F)(F)F)c(CNC(=O)c4ccc(O)cc4)c3)nn2CCCN2CCC3(CCNC3=O)CC2)C1 [Example 142, 4-Hydroxy-N-(5-{5-methanesulfonyl-1-[3-(1-oxo-2,8-diaza-spiro[4.5]dec-8-yl)-propyl]-4,5,6,7-tetrahydro-1H-pyrazolo[4,3-c]pyridin-3-yl}-2-trifluoromethyl-benzyl)-benzamide]
0.97 | CS(=O)(=O)N1CCc2c(c(-c3ccc(Cl)c(CNC(=O)c4cccs4)c3)nn2CCCN2CCCC2)C1 [Example 241, Thiophene-2-carboxylic acid 2-chloro-5-[5-methanesulfonyl-1-(3-pyrrolidin-1-yl-propyl)-4,5,6,7-tetrahydro-1H-pyrazolo[4,3-c]pyridin-3-yl]-benzylamide]
0.41 | CS(=O)(=O)N1CCc2c(c(-c3ccc(Cl)c(CNC(=O)c4cc5ccccc5s4)c3)nn2CCCN2CCCC2)C1 [Example 164, Benzo[b]thiophene-2-carboxylic acid 2-chloro-5-[5-methanesulfonyl-1-(3-pyrrolidin-1-yl-propyl)-4,5,6,7-tetrahydro-1H-pyrazolo[4,3-c]pyridin-3-yl]-benzylamide]
0.46 | CS(=O)(=O)N1CCc2c(c(-c3ccc(C(F)(F)F)c(CNC(=O)c4cccc(Cl)c4)c3)nn2CC(O)CN2CCCC2)C1 (stereo not shown) [Example 166, 3-Chloro-N-{5-[1-(2-hydroxy-3-pyrrolidin-1-yl-propyl)-5-methanesulfonyl-4,5,6,7-tetrahydro-1H-pyrazolo[4,3-c]pyridin-3-yl]-2-trifluoromethyl-benzyl}-benzamide]

Source: patent US20090118274A1, “MONOCYCLIC AMINOPROPYL TETRAHYDRO-PYRAZOLO-PYRIDINE MODULATORS OF CATHEPSIN S” (priority 2007, published 2009)
